*: point of attachment. NHNH2 = NN*
Experiments:
Format in all cases: cell-based
[1] = test system: Hek293 cells expressing EGFP; test: Cas9-RNP delivery against EGFP (gene editing, plate reader), Hek293
Protocol: (§1) To generate an EGFP expressing HeLa cell line, HeLa cells were transfected with EGFP pDNA (pEGFP-C1, Clontech) and stable transfectants were selected with 400 μg/mL of G-418 (Millipore). Green clones were selected by epifluorescence microscopy and tested for EGFP expression stability through several passages. […] All other EGFP-expressing cell lines were obtained in a similar way from parent non-EGFP-expressing cell lines.
Cells expressing EGFP were seeded in a 96 well plate the day before the experiment at a concentration of 50,000 cell/mL (100 μL/w) in DMEM+10% FBS+1% Gln-Abt. For robotic library screening, the delivery of Cas9-RNP against EGFP (RNP designed to knock-out the gene encoding for the enhanced green fluorescent protein (EGFP)) was performed. For RNP assembly, 9.2 μL of crRNA and 9.2 μL of tracrRNA were mixed in 211.6 μL of Nuclease-Free Duplex Buffer (IDT), incubated for 5 min at 95° C. and slowly cooled at rt (see I. Lostalé-Seijo, et al. Peptide/Cas9 nanostructures for ribonucleoprotein cell membrane transport and gene edition, Chem. Sci., 2017). Cas9 protein was dissolved in DMEM at a final concentration of 4 μM and equal volumes of the RNA complex and Cas9 were mixed and incubated for 5 min at rt. 75 μL of the corresponding amphiphile concentrations were added to 5 μL of RNP at 2 μM. The mixture was shaken for 30 min at room temperature before the addition to the cells. The cell medium was aspirated, and cells were washed twice with PBS. Cells were covered with 30 μL of DMEM and 20 μL of the RNP/amphiphile complexes were added to the cells (final peptide concentrations=2.5, 5 and 10 μM; final Cas9-RNP concentration=50 nM) and incubated for 4 h. After the incubation, the medium was replaced by 100 μL of fresh DMEM supplemented with 10% FBS. The total EGFP fluorescence was quantified after 72 h in a plate reader (FIG. 2, Table 1 (right) and Table 6). All experiments were done in triplicate. […]
(§2) Tables 26-31 show the mean (triplicates) percentage of gene editing, accounted by GFP fluorescence intensity decrease (% of reduction), measured after the transfection of Cas9-RNP by different amphiphiles at different concentrations in a variety of cell lines. Background values, accounted by untreated control cells, were subtracted for processing.

[2] = test system: HCT116 cells; test: EGFP mRNA delivery, robotic library screening, HCT116
Protocol: Cells were seeded in a 96 well plate the day before the experiment at a concentration of 50,000 cell/mL (100 μL/w) in DMEM+10% FBS+1% Gln-Abt. For robotic library screening, the delivery of EGFP-mRNA (from TriLink, fully substituted with 5-methoxyuridine, capped and polyadenylated; TriLink, CleanCap® EGFP mRNA (5moU), ref. L-7201) in six different cell lines was performed. Amphiphilic molecule stock solutions were prepared in DMSO as described above and diluted in DMEM to afford a range of concentrations. The solutions of EGFP-mRNA/amphiphilic molecule complexes were freshly prepared prior to the transfection experiments. 35 μL of the corresponding amphiphile were added to 10 μL of a solution of EGFP-mRNA at 10 ng/μL in DMEM. The mixture was shaken for 30 min at room temperature before the addition to the cells. The cell medium was aspirated, and cells were washed with PBS twice. Cells were covered with 39 μL of DMEM and 11 μL of the complex's solution were added to the cells and incubated for 4 h (final concentration of peptide=2.5, 5 and 10 μM; final concentration of EGFP-mRNA=25 ng/well). After the incubation, the medium was replaced by 100 μL of fresh DMEM supplemented with 10% FBS. The total EGFP fluorescence was quantified after 72 h in a well plate reader. Amphiphile transfection efficiency was compared and normalized to Lipofectamine® MessengerMax efficiency (value of 1 in Tables 1-5 and 7; double underlined numbers). All experiments were done in triplicate.
(§3) Tables 1-7: RLuc (pDNA) or EGFP (mRNA) expression levels were normalized to Lipofectamine reagents (value=1) and expressed as fold-times signal increase. In the case of siRNA, the siRNA treated cells fluorescence was compared with siMOCK control fluorescence, while Cas9-RNP mediated knockout was measured against the fluorescence of untreated cells. In both siRNA and Cas9-RNP, values are expressed as % fluorescence reduction. Amphiphile concentration was 5 μM in all cases. All experiments were performed in triplicate.
Tables 14-19 show the mean (triplicates) fluorescence intensity measured after the transfection of EGFP mRNA by different amphiphiles at different concentrations in a variety of cell lines. Background fluorescence values, accounted by untreated control cells, were subtracted for processing.

[3] = test system: Hela cells expressing EGFP; test: Cas9-RNP delivery against EGFP (gene editing, plate reader), HeLa; settings: for % GFP silencing due to gene editing (Cas9-RNP): HeLa
Protocol: as §1
Cells expressing EGFP were seeded in a 96 well plate the day before the experiment at a concentration of 50,000 cell/mL (100 μL/w) in DMEM+10% FBS+1% Gln-Abt. For robotic library screening, the delivery of Cas9-RNP against EGFP (RNP designed to knock-out the gene encoding for the enhanced green fluorescent protein (EGFP)) was performed. For RNP assembly, 9.2 μL of crRNA and 9.2 μL of tracrRNA were mixed in 211.6 μL of Nuclease-Free Duplex Buffer (IDT), incubated for 5 min at 95° C. and slowly cooled at rt (see I. Lostalé-Seijo, et al. Peptide/Cas9 nanostructures for ribonucleoprotein cell membrane transport and gene edition, Chem. Sci., 2017). Cas9 protein was dissolved in DMEM at a final concentration of 4 μM and equal volumes of the RNA complex and Cas9 were mixed and incubated for 5 min at rt. 75 μL of the corresponding amphiphile concentrations were added to 5 μL of RNP at 2 μM. The mixture was shaken for 30 min at room temperature before the addition to the cells. The cell medium was aspirated, and cells were washed twice with PBS. Cells were covered with 30 μL of DMEM and 20 μL of the RNP/amphiphile complexes were added to the cells (final peptide concentrations=2.5, 5 and 10 μM; final Cas9-RNP concentration=50 nM) and incubated for 4 h. After the incubation, the medium was replaced by 100 μL of fresh DMEM supplemented with 10% FBS. The total EGFP fluorescence was quantified after 72 h in a plate reader (FIG. 2, Table 1 (right) and Table 6). All experiments were done in triplicate.
as §3, §2

Substance | percentage of gene editing, GFP fluorescence intensity decrease (% of reduction) ([1]; Dodecanal, 5 μM) | percentage of gene editing, GFP fluorescence intensity decrease (% of reduction) ([1]; Dodecanal, 10 μM) | mean fluorescence intensity (EGFP mRNA) ([2]; Dodecanal, 5 μM) | mean fluorescence intensity (EGFP mRNA) ([2]; Myristoleyl, 2.5 μM) | mean fluorescence intensity (EGFP mRNA) ([2]; Petroselinyl, 5 μM) | percentage of gene editing, GFP fluorescence intensity decrease (% of reduction) ([3]; Dodecanal, 5 μM, Hela cells) | percentage of gene editing, GFP fluorescence intensity decrease (% of reduction) ([3]; Dodecanal, 10 μM, HeLa cells) | percentage of gene editing, GFP fluorescence intensity decrease (% of reduction) ([3]; Dodecanal, 15 μM, Hela cells) | percentage of gene editing, GFP fluorescence intensity decrease (% of reduction) ([3]; Myristoleyl, 5 μM, HeLa cells) | percentage of gene editing, GFP fluorescence intensity decrease (% of reduction) ([3]; Myristoleyl, 15 μM, Hela cells) | also measured
Ac-RK*LRRK*LRK*-NH2 (Ac-RK(NHNH2)LRRK(NHNH2)LRK(NHNH2)-NH2; not fully specified; printed as Ac-RK*LRRK*LRK*-NH2; also: K*2,K*6,K*9: native or modified lysine (ε-amide to a linker)) [Peptide 9.3] | −11% | −53% | 526 | 2151 | 919 | 25% | 61% | 80% | 14% | 81% | percentage of gene editing, GFP fluorescence intensity decrease (% of reduction) ([1]; Oleyl, 5 μM): 12%; percentage of gene editing, GFP fluorescence intensity decrease (% of reduction) ([1]; Oleyl, 10 μM): −5%; percentage of gene editing, GFP fluorescence intensity decrease (% of reduction) ([1]; Petroselinyl, 5 μM): −12%; mean fluorescence intensity (EGFP mRNA) ([2]; Oleyl, 2.5 μM): 1067; mean fluorescence intensity (EGFP mRNA) ([2]; Oleyl, 5 μM): 910; mean fluorescence intensity (EGFP mRNA) ([2]; Oleyl, 10 μM): 1044; mean fluorescence intensity (EGFP mRNA) ([2]; Petroselinyl, 10 μM): 1252; % GFP silencing due to gene editing (Cas9-RNP) ([3]; 5 μM, Dod tail): 80%; % GFP silencing due to gene editing (Cas9-RNP) ([3]; 5 μM, Pal tail): 77%; percentage of gene editing, GFP fluorescence intensity decrease (% of reduction) ([3]; Oleyl, 5 μM, HeLa cells): 11%; percentage of gene editing, GFP fluorescence intensity decrease (% of reduction) ([3]; Oleyl, 10 μM, HeLa cells): 26%; percentage of gene editing, GFP fluorescence intensity decrease (% of reduction) ([3]; Palmitoleyl, 10 μM, HeLa cells): 44%; percentage of gene editing, GFP fluorescence intensity decrease (% of reduction) ([3]; Palmitoleyl, 15 μM, Hela cells): 77%; percentage of gene editing, GFP fluorescence intensity decrease (% of reduction) ([3]; Petroselinyl, 10 μM, Hela cells): 49%; percentage of gene editing, GFP fluorescence intensity decrease (% of reduction) ([3]; Petroselinyl, 15 μM, Hela cells): 77%
Ac-RK*LRRLLRK*-NH2 (Ac-RK(NHNH2)LRRLLRK(NHNH2)-NH2; not fully specified; printed as Ac-RK*LRRLLRK*-NH2; also: K*2,K*9: native or modified lysine (ε-amide to a linker)) [Peptide 9.2] | −38% | −55% | 438 | 1498 | 662 | 6% | 14% | 47% | −12% | 52% | –

From patent US20250304623A1, “PEPTIDES FOR INTRACELLULAR DELIVERY” (UNIVERSIDADE DE SANTIAGO DE COMPOSTELA, priority 2022, published 2025)
